According to ChEMBL document CHEMBL5143689, “In silico, synthesis and anticancer evaluation of benzamide tryptamine derivatives as novel eEF2K inhibitors” (Bioorg Med Chem Lett, 2022):
Activity calls are given as the source filed them. The calls are words filed in the database; no cut-off is given here.

Key:
CCRF-CEM [1] = experiment: Antiproliferative activity against human CCRF-CEM cells assessed as inhibition of cell viability measured after 48 hrs by MTT assay; assay type: functional, cell-based
K562 = experiment: Antiproliferative activity against human K562 cells assessed as inhibition of cell viability measured after 48 hrs by MTT assay; assay type: functional, cell-based; conditions: K562, 48 h
U-937 = experiment: Antiproliferative activity against human U-937 cells assessed as inhibition of cell viability measured after 48 hrs by MTT assay; assay type: functional, cell-based; conditions: U-937, 48 h
[2] = target: T1, Eukaryotic elongation factor 2 kinase (Homo sapiens, UniProt O00418); experiment: Inhibition of eEF2K (unknown origin)
T1 sequence (O00418 whole entry): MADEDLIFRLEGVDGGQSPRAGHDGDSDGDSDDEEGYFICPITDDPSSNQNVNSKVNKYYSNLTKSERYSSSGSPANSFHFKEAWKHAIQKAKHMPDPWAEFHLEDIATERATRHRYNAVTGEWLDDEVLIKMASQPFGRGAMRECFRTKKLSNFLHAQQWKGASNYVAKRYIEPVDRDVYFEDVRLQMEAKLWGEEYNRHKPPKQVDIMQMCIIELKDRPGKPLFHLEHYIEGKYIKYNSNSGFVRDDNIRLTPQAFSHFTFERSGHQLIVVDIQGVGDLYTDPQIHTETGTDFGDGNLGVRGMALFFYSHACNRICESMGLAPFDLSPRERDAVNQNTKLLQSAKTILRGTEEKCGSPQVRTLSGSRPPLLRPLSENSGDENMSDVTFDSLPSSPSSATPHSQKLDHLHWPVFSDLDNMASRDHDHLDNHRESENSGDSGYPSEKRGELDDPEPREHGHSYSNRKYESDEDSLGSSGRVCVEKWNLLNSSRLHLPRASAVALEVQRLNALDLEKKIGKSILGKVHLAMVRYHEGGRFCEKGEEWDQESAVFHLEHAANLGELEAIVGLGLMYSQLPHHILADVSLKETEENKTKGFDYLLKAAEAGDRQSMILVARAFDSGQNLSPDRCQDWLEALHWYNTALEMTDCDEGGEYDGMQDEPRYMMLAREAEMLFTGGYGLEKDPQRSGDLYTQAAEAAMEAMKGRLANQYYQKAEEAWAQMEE

CCRF-CEM [3] = experiment: Induction of cell cycle arrest in human CCRF-CEM cells assessed as accumulation at G0/G1 phase at 8 uM incubated for 48 hrs by PI/ RNaseA staining based flow cytometry analysis (reference value: 71.3%); assay type: functional
[4] = target: T2, Eukaryotic elongation factor 2 kinase (Homo sapiens) (UniProt O00418); experiment: Inhibition of eEF2K in human CCRF-CEM cells assessed as decrease in phosphorylation of eEF2 at threonine 58 residue up to 16 uM measured after 48 hrs by Western blot analysis; assay type: cell-based
T2 sequence (whole entry): T1 sequence (O00418 whole entry)

CCRF-CEM [5] = experiment: Induction of apoptosis in human CCRF-CEM cells assessed as increase in cleaved caspase-9 level at 5 uM by Western blot analysis; assay type: functional, cell-based; conditions: time <= 48.0 hrs, TDE = time-dependent effect
CCRF-CEM [6] = experiment: Induction of apoptosis in human CCRF-CEM cells assessed as late apoptotic cells up to 8 uM measured after 48 hrs by AnnexinV-FITC/PI staining based flow cytometry method; assay type: functional
[7] = target: T2, Eukaryotic elongation factor 2 kinase (Homo sapiens); experiment: Inhibition of eEF2K in human CCRF-CEM cells assessed as decrease in phosphorylation of Akt at 5 uM measured up to 48 hrs by Western blot analysis; assay type: cell-based
CCRF-CEM [8] = experiment: Induction of apoptosis in human CCRF-CEM cells assessed as increase in cleaved PARP level at 5 uM by Western blot analysis; assay type: functional, cell-based; conditions: time <= 48.0 hrs, TDE = time-dependent effect
CCRF-CEM [9] = experiment: Induction of apoptosis in human CCRF-CEM cells assessed as increase in cleaved caspase-3 level at 5 uM by Western blot analysis; assay type: functional, cell-based; conditions: time <= 48.0 hrs, TDE = time-dependent effect
[10] = target: T2, Eukaryotic elongation factor 2 kinase (Homo sapiens); experiment: Inhibition of eEF2K in human CCRF-CEM cells assessed as decrease in phosphorylation of MAPK up to 16 uM measured after 48 hrs by Western blot analysis; assay type: cell-based
[11] = target: T2, Eukaryotic elongation factor 2 kinase (Homo sapiens); experiment: Inhibition of eEF2K in human CCRF-CEM cells assessed as decrease in phosphorylation of mTOR up to 16 uM measured after 48 hrs by Western blot analysis; assay type: cell-based
CCRF-CEM [12] = experiment: Induction of apoptosis in human CCRF-CEM cells assessed as increase in cleaved caspase-8 level at 5 uM by Western blot analysis; assay type: functional, cell-based; conditions: time <= 48.0 hrs, TDE = time-dependent effect
CCRF-CEM [13] = experiment: Induction of cell cycle arrest in human CCRF-CEM cells assessed as accumulation at G0/G1 phase at 4 uM incubated for 48 hrs by PI/ RNaseA staining based flow cytometry analysis (reference value: 71.3%); assay type: functional
[14] = target: T2, Eukaryotic elongation factor 2 kinase (Homo sapiens); experiment: Inhibition of eEF2K in human CCRF-CEM cells assessed as decrease in phosphorylation of eEF2 at threonine 56 residue up to 16 uM measured after 48 hrs by Western blot analysis; assay type: cell-based
CCRF-CEM [15] = experiment: Induction of apoptosis in human CCRF-CEM cells assessed as early apoptotic cells up to 8 uM measured after 48 hrs by AnnexinV-FITC/PI staining based flow cytometry method; assay type: functional
[16] = target: T2, Eukaryotic elongation factor 2 kinase (Homo sapiens); experiment: Inhibition of eEF2K in human CCRF-CEM cells assessed as decrease in phosphorylation of eEF2 at 5 uM measured up to 48 hrs by Western blot analysis; assay type: cell-based
[17] = target: T2, Eukaryotic elongation factor 2 kinase (Homo sapiens); experiment: Inhibition of eEF2K in human CCRF-CEM cells assessed as decrease in phosphorylation of MAPK at 5 uM measured up to 48 hrs by Western blot analysis; assay type: cell-based
CCRF-CEM [18] = experiment: Induction of cell cycle arrest in human CCRF-CEM cells assessed as accumulation at G0/G1 phase at 2 uM incubated for 48 hrs by PI staining based flow cytometry analysis (reference value: 71.3%); assay type: functional
[19] = target: T2, Eukaryotic elongation factor 2 kinase (Homo sapiens); experiment: Inhibition of eEF2K in human CCRF-CEM cells assessed as decrease in phosphorylation of Akt up to 16 uM measured after 48 hrs by Western blot analysis; assay type: cell-based
[20] = target: T2, Eukaryotic elongation factor 2 kinase (Homo sapiens); experiment: Inhibition of eEF2K in human CCRF-CEM cells assessed as decrease in MAPK protein expression level up to 16 uM measured after 48 hrs by Western blot analysis; assay type: cell-based
[21] = target: T2, Eukaryotic elongation factor 2 kinase (Homo sapiens); experiment: Inhibition of eEF2K in human CCRF-CEM cells assessed as decrease in phosphorylation of mTOR at 5 uM measured up to 48 hrs by Western blot analysis; assay type: cell-based

| Structure (SMILES) | IC50 (CCRF-CEM [1]) | IC50 (K562) | IC50 (U-937) | also measured |
| --- | --- | --- | --- | --- |
| COc1ccc2[nH]cc(CCNCC(C)C(=O)Nc3ccc(C)cc3N)c2c1 (racemic) | > 50 µM | 39.2 µM | > 50 µM |  |
| O=C(Nc1ccc(F)cc1F)N1CCCN(Cc2ccccc2)CC1 |  |  |  | IC50 [2]: 32 nM |
| O=C1CC(c2ccccc2)c2cccc(N3CCCC3)c21 (stereo unspecified) |  |  |  | IC50 [2]: 230 nM |
| O=S(=O)(c1ccc(Cl)cc1)C1(S(=O)(=O)c2ccc(Cl)cc2)CC1 |  |  |  | IC50 [2]: 69 nM |
| COc1ccc2[nH]cc(CCNCCC(=O)Nc3ccc(C)cc3N)c2c1 | > 50 µM | > 50 µM | > 50 µM |  |
| Cc1ccc(C2=NC(C)(O)CC(C(C)C)[Se]2)cc1 (stereo unspecified) |  |  |  | IC50 [2]: 1500 nM |
| COc1ccc2[nH]cc(CCNCCC(=O)Nc3ccc(C)cc3[N+](=O)[O-])c2c1 | 14.5 µM | 48.1 µM | > 50 µM |  |
| Cc1ccc(NC(=O)CCNCCc2c[nH]c3ccccc23)c(N)c1 | > 50 µM | > 50 µM | > 50 µM |  |

Further compounds by falling IC50 (CCRF-CEM [1]), results first:

| IC50 (CCRF-CEM [1]) | IC50 (K562) | IC50 (U-937) | Structure (SMILES) | also measured |
| --- | --- | --- | --- | --- |
| 9.79 µM | 7.83 µM | 15.2 µM | COc1ccc2[nH]cc(CCNCCC(=O)Nc3ccccc3)c2c1 |  |
| 9.16 µM | 37.5 µM | > 50 µM | COc1ccc2[nH]cc(CCNCC(C)C(=O)Nc3ccccc3)c2c1 (racemic) |  |
| 6.2 µM | > 50 µM | > 50 µM | Nc1cc(F)ccc1NC(=O)CCNCCc1c[nH]c2ccccc12 |  |
| 4.71 µM | 16.5 µM | 11.2 µM | COc1ccc2[nH]cc(CCNCCC(=O)Nc3ccccc3N)c2c1 |  |
| 4.45 µM | 33.8 µM | > 50 µM | CC(CNCCc1c[nH]c2ccccc12)C(=O)Nc1ccccc1N (racemic) |  |
| 3.9 µM | 7 µM | 11.4 µM | CC(CNCCc1c[nH]c2ccccc12)C(=O)Nc1ccccc1 (racemic) |  |
| 1.63 µM | 3.54 µM | 2.12 µM | O=C(CCNCCc1c[nH]c2ccc(Cl)cc12)Nc1ccccc1 | Activity (CCRF-CEM [3]): 92.3%; inhibition [4]: Active; Activity (CCRF-CEM [5]): Tde; Activity (CCRF-CEM [6]): 23.1%; inhibition [7]: Active; Activity (CCRF-CEM [8]): Tde; Activity (CCRF-CEM [9]): Tde; inhibition [10]: Active; inhibition [11]: Active; Activity (CCRF-CEM [12]): Tde; Activity (CCRF-CEM [13]): 89.7%; inhibition [14]: Active; Activity (CCRF-CEM [15]): 0.021%; inhibition [16]: Active; inhibition [17]: Active; Activity (CCRF-CEM [18]): 80.8%; inhibition [19]: Active; inhibition [20]: Active; inhibition [21]: Active |
